In patent US8586768B2, “Design, synthesis and functional characterization of rottlerin analogs” (priority 2009, dated 2013):
Like-named read-outs stand apart in the source and are kept apart here.

Key:
ERKI = biological target: T1, ERKI (Homo sapiens, UniProt P27361); test: In-vitro kinase profiling, radioisotope screening assay (Signal Chem); type: biochemical; conditions: 5 μM compound, 50 μM ATP, vs vehicle control; negative = inhibition
T1 construct: purchased Signal Chem (Richmond, BC, Canada)
Method: (§1) Kinase profiling of PK analogs. The inhibitory effect of lead PK analogs were tested against a panel of 15 protein kinase targets (TABLE 1) to develop better lead candidates without “off” target effects. The selectivity assay was performed at Signal Chem™ (Richmond, BC, Canada) by profiling against protein kinase targets using the “Gold Standard” radioisotope screening assay format. This assay format gave the highest signal noise ratio and allowed the direct measurement of catalytic activity of a protein kinase.
(§2) All assays were performed in triplicate in a 96-well assay format and the % error between triplicates is <10%. Protein kinase assays was performed in the presence of 50 μM ATP at 30° C. for 15 min. The activity of the enzymes in the presence of 5 μM PK analogs was compared to that in the vehicle control and expressed as a percent change in activity relative to that observed in the vehicle control. In TABLE 1, the results are expressed as percent activity change compared to control. The intra-assay variability was determined to be less than 10%. Inhibition of target activity by the compound is shown by a negative value, while activation of target activity is shown by positive value, with values >10% considered to be highly significant.

PKCε = biological target: T2, PKCε (Homo sapiens, UniProt Q02156); test: as above; type: biochemical; conditions: for % activity change: 5 μM compound, 50 μM ATP, vs vehicle control, negative = inhibition
T2 construct: purchased Signal Chem (Richmond, BC, Canada)
T2 sequence (Q02156 1-737): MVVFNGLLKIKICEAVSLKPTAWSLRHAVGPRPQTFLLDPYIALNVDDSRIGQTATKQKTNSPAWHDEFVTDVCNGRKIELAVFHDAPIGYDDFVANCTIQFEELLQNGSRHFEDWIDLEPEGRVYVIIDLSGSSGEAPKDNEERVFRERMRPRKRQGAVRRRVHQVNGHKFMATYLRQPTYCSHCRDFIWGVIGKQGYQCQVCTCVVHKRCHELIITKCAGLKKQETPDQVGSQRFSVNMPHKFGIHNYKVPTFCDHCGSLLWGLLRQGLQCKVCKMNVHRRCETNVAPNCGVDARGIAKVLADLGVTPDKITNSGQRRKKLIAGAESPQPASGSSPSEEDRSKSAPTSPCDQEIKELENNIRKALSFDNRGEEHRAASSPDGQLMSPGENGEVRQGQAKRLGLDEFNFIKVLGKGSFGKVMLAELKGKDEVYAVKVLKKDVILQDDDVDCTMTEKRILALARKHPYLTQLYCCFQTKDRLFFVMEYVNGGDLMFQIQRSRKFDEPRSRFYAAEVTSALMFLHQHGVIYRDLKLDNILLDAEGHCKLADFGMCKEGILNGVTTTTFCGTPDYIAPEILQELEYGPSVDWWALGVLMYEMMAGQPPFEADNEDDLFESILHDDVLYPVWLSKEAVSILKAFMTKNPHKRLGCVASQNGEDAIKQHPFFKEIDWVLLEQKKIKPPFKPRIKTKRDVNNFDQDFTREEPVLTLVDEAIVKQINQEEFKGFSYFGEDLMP
Method: as §1, §2

P38α = biological target: T3, P38α (Homo sapiens, UniProt Q16539); test: as above; type: biochemical; conditions: 5 μM compound, 50 μM ATP, vs vehicle control; negative = inhibition
T3 construct: purchased Signal Chem (Richmond, BC, Canada)
Method: as §1, §2

C57 black mice = test: MPTP mouse model, tyrosine hydroxylase (TH) immunostaining of substantia nigra; type: in vivo; conditions: MPTP 4 x 18 mg/kg i.p.; 10 mg/kg oral gavage, 7 days
Method: PK analogs attenuate dopaminergic neuronal cell loss induced by MPTP toxicity in mouse substantia nigra. Lead PK analogs were examined to determine whether they could protect against MPTP-induced dopaminergic neuronal loss in C57 black mice. Mice received 4 doses of MPTP at 18 mg/kg i.p. at 2 hr interval. Oral administration of PK analogs (10 mg/kg body wt, oral gavage) was continued for 7 days. Mice were sacrificed after 7 days of MPTP injections. (n=5).
Abbreviataions: M: MPTP; SNpc: substantia nigra pars compacta; SNl: substantia nigra lateralis; SNr: substantia nigra reticularis; VTA: Ventral tegmental area.

N27 cells = conditions: 300 μM MPP+ 24 hr
Method: (§3) At the end of the treatment, cytotoxicity was measured using the Sytox cell death assay in a 96-well fluorescence microplate reader.
A second generation of rottlerin analogs was further utilized for neuroprotection studies, as shown as PK201-203 in FIG. 2.
as §3
The analogs were tested in an N27 dopaminergic cell model for their neuroprotective properties. […] At the end of the treatment, cytotoxicity was measured using the Sytox cell death assay in a 96-well fluorescence microplate reader.
Rat mesencephalic dopaminergic clonal cells (N27) were used and maintained in RPMI 1640 complete medium supplemented with 10% Fetal Bovine Serum, 1% […] and 1% Penicillin/Streptomycin in a 37° C. incubator with 5% CO2. After 4-6 days in culture, the cells were used for the experiments.
N27 cells were exposed to MPP^+ for 24 hr in the presence or absence of PK analogs in the dose range of 1-30 μM.

[1] = LC-MS-MS detection in mouse brain after oral administration; type: in vivo
From the text: Bioavailability of Lead PK analogs. LC-MS-MS detection of lead PK analogs PK202 and PK8302 analog in mouse brain was completed.

[2] = mouse brain, oral administration (oral gavage)
[3] = co-treated with 0.3, 1 and 3 μM

T3 sequence (Q16539 whole entry): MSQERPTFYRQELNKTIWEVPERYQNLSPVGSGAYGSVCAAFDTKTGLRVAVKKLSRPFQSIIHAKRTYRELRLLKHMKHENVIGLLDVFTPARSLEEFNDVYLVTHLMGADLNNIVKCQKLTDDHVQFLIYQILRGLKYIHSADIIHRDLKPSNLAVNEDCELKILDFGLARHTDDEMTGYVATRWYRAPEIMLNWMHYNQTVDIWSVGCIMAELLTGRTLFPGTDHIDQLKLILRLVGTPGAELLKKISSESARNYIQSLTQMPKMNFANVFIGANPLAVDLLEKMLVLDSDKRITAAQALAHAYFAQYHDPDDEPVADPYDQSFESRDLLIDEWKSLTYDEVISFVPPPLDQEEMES
T1 sequence (P27361 whole entry): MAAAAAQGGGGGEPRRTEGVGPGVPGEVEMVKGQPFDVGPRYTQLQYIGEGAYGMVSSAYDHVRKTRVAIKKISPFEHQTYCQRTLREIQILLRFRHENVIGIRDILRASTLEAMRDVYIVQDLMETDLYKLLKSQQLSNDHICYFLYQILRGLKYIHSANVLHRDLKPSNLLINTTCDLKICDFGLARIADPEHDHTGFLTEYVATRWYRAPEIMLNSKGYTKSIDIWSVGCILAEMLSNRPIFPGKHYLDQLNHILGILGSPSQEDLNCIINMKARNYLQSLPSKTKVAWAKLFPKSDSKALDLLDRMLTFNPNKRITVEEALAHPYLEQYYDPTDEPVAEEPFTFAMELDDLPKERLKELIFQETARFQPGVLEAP

SMILES	% activity change (ERKI) [%]	% activity change (PKCε) [%]	% activity change (P38α) [%]	protection against MPTP-induced nigral dopaminergic degeneration (TH immunostaining) (C57 black mice)	blockage of MPP+-induced cytotoxicity (N27 cells; co-treated with 3 μM)	level detected in substantia nigra by LC-MS-MS [1, 2]	relative potency against MPP+-induced cytotoxic cell death within the generation (N27 cells)	blockage of MPP+-induced cytotoxicity (N27 cells; [3])	level detected in substantia nigra by LC-MS-MS ([1]; mouse, in vivo, po)	inhibition at 5 µM (PKCε; 5 μM concentration, given as positive inhibition, read-out: inhibited by % compared to control) [%]
Oc1cc(O)c(Cc2c(O)cc(O)cc2O)c(O)c1 [PK103]	0	5	−5	significant protection	significant blockage	–	–	–	–	–
CC(=O)c1c(O)c(C)c(O)c(Cc2c(O)c3c(c4c2OC(c2ccccc2)CC4=O)OC(C)(C)C=C3)c1O (stereo not drawn) [PK202]	4	−3	−1	significant protection	–	Significant amounts	most potent inhibitor	significant blockage	–	–
CC1(C)C=Cc2c(O)cc(O)c(C(=O)/C=C/c3ccccc3)c2O1 [PK302]	3	6	−4	significant protection	–	–	more potent inhibitors than PK301	significant blockage	Significant amounts	–
CC(=O)c1c(O)c(C)c(O)c(Cc2c(O)c3c(c(C(=O)/C=C/c4ccccc4)c2O)OC(C)(C)C=C3)c1O [Rottlerin, (E)-1-[6-[(3-acetyl-2,4,6-trihydroxy-5-methylphenyl)methyl]-5,7-dihydroxy-2,2-dimethylchromen-8-yl]-3-phenylprop-2-en-1-one]	3	−25	−1	–	–	Significant levels	–	–	–	25
